Results from ChEMBL document CHEMBL1828590 (J Med Chem, 2011).

Experiments:
[1] = tested on: Mus musculus; assay: Toxicity in athymic nu/nu Harlan mouse xenografted with human HCT116 cells assessed as mouse survival at 100 mg/kg, po QD for 21 days measured on day 22; format: organism-based, HCT-116; parameters: dose 100 mg/kg, route oral; settings: in vivo, 504 h
[2] = tested on: COLO 205; assay: Antiproliferative activity against human COLO205 cells after 96 hrs by celltiter 96 assay; format: functional, cell-based; settings: COLO 205, 96 h
[3] = target: Histone deacetylase 4 (Homo sapiens, UniProt P56524)
Description: Competitive inhibition of HDAC4 using KI-104 as substrate by fluorescence assay

[4] = tested on: PC-3; assay: Antiproliferative activity against human PC3 cells after 96 hrs by celltiter 96 assay; format: functional, cell-based; settings: PC-3, 96 h
[5] = tested on: A2780; assay: Antiproliferative activity against human A2780 cells after 96 hrs by celltiter 96 assay; format: functional, cell-based; settings: A2780, 96 h
[6] = tested on: Mus musculus; assay: Toxicity in athymic nu/nu Harlan mouse xenografted with human HCT116 cells assessed as mouse survival at 200 mg/kg, po QD for 21 days measured on day 22; format: organism-based, HCT-116; parameters: dose 200 mg/kg, route oral; settings: in vivo, 504 h
[7] = tested on: Mus musculus; assay: Toxicity in athymic nu/nu Harlan mouse xenografted with human HCT116 cells assessed as mouse survival at 50 mg/kg, po QD for 21 days measured on day 22; format: organism-based, HCT-116; parameters: dose 50 mg/kg, route oral; settings: in vivo, 504 h
[8] = target: T1, Protein deacetylase HDAC6 (Homo sapiens, UniProt Q9UBN7)
T1 sequence (Q9UBN7 whole entry): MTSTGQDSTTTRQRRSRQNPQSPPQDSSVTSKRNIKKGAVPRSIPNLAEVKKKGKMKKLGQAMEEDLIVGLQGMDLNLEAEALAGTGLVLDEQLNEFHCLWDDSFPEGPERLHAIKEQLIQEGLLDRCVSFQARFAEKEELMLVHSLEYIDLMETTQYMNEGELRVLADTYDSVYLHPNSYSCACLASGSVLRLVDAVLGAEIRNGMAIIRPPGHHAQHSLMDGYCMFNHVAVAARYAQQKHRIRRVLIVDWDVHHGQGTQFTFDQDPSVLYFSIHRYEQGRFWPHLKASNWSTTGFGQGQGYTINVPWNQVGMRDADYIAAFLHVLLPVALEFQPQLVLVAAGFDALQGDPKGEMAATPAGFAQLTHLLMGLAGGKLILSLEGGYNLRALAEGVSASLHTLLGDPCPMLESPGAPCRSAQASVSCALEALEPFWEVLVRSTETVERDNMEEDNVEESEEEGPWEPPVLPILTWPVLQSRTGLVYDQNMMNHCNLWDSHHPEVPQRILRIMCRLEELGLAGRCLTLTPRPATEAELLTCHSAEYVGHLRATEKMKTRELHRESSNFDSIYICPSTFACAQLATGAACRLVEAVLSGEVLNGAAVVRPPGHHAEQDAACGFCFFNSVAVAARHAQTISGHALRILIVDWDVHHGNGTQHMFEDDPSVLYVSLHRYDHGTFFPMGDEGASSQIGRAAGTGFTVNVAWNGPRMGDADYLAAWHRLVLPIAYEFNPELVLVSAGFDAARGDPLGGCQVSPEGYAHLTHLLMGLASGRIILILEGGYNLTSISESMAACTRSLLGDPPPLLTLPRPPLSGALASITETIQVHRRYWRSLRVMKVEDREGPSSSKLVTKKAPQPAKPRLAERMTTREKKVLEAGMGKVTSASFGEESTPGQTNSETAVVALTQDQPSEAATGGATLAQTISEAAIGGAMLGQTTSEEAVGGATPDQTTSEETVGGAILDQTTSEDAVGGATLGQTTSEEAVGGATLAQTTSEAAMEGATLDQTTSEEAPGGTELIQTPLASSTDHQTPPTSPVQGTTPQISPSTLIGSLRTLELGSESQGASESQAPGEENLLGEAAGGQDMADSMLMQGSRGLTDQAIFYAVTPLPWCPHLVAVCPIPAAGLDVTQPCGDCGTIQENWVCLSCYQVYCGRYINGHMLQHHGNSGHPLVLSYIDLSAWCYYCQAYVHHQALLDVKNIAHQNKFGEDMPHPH
Description: Competitive inhibition of HDAC6 using KI-104 as substrate by fluorescence assay

[9] = tested on: HCT-116; assay: Antitumor activity against human HCT116 cells xenografted in athymic nu/nu Harlan mouse assessed as tumor growth inhibition at 100 mg/kg, po qd for 21 days measured on day 22; format: functional; settings: read-out: TGI
[10] = tested on: HCT-116; assay: Antiproliferative activity against human HCT116 cells after 96 hrs by celltiter 96 assay; format: functional, cell-based; settings: HCT-116, 96 h
[11] = tested on: HCT-116; assay: Antitumor activity against human HCT116 cells xenografted in nude BALB/c mouse assessed as tumor growth inhibition at 200 mg/kg, po qd for 21 days measured on day 15; format: functional; settings: read-out: TGI
[12] = tested on: HCT-116; assay: Antitumor activity against human HCT116 cells xenografted in athymic nude nu/nu CD1 mouse assessed as tumor growth inhibition at 40 mg/kg, ip qd for 7 days measured on day 10; format: functional; settings: HCT-116, ip, route intraperitoneal, read-out: TGI
[13] = Oral bioavailability in nude BALB/c mouse at 50 mg/kg; format: ADME, organism-based; settings: in vivo
[14] = tested on: HCT-116; assay: Antitumor activity against human HCT116 cells xenografted in athymic nu/nu Harlan mouse assessed as tumor growth inhibition at 50 mg/kg, po qd for 21 days measured on day 22; format: functional; settings: read-out: TGI
[15] = target: T2, Polyamine deacetylase HDAC10 (Homo sapiens, UniProt Q969S8)
T2 sequence (Q969S8 whole entry): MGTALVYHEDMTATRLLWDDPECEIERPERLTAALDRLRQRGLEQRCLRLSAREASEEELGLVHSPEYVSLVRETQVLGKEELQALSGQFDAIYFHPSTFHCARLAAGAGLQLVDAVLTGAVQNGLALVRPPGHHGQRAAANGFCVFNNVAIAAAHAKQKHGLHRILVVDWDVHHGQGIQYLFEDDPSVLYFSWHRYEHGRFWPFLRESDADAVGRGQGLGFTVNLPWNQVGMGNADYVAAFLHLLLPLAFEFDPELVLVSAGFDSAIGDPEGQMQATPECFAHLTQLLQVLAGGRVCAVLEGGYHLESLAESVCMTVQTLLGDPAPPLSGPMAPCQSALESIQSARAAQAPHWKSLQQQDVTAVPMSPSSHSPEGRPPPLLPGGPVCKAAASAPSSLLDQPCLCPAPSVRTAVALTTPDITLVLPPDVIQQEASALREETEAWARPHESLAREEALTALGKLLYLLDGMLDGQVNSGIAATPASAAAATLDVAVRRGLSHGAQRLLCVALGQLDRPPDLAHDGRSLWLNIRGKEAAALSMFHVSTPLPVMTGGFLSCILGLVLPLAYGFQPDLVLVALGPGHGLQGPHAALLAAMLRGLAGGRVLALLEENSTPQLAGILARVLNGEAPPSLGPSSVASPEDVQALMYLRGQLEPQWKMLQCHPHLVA
Description: Competitive inhibition of HDAC10 using KI-104 as substrate by fluorescence assay

[16] = tested on: Mus musculus; assay: Toxicity in athymic nu/nu Harlan mouse xenografted with human HCT116 cells assessed as body weight loss at 200 mg/kg, po QD for 7 days measured on day 5; format: organism-based, HCT-116; parameters: dose 200 mg/kg, route oral; settings: in vivo, 168 h
[17] = tested on: HCT-116; assay: Antitumor activity against human HCT116 cells xenografted in athymic nu/nu Harlan mouse assessed as tumor growth inhibition at 200 mg/kg, po qd for 21 days measured on day 22; format: functional; settings: read-out: TGI
[18] = Apparent permeability from apical to basolateral side of human Caco2 cells; format: ADME, cell-based; settings: Caco-2
[19] = tested on: Mus musculus; assay: Toxicity in athymic nu/nu Harlan mouse xenografted with human HCT116 cells assessed as mouse survival at 25 mg/kg, po QD for 21 days measured on day 22; format: organism-based, HCT-116; parameters: dose 25 mg/kg, route oral; settings: in vivo, 504 h
[20] = Half life in mouse liver microsomes; format: ADME, Microsome; settings: liver microsomes
[21] = Apparent permeability from basolateral to apical side of human Caco2 cells; format: ADME, cell-based; settings: Caco-2
[22] = tested on: Mus musculus; assay: Toxicity in athymic nu/nu Harlan mouse xenografted with human HCT116 cells assessed as body weight loss at 50 mg/kg, po QD for 21 days measured on day 5; format: organism-based, HCT-116; parameters: dose 50 mg/kg, route oral; settings: in vivo, 504 h
[23] = tested on: HCT-116; assay: Antitumor activity against human HCT116 cells xenografted in athymic nu/nu Harlan mouse assessed as tumor growth inhibition at 25 mg/kg, po qd for 21 days measured on day 22; format: functional; settings: read-out: TGI
[24] = Half life in rat liver microsomes; format: ADME, Microsome
[25] = Half life in human liver microsomes; format: ADME, Microsome
[26] = 1-Octanol-sodium phosphate buffer distribution coefficient, log D of the compound at pH 7.4; format: physicochemical; settings: 1-octanol/sodium phosphate buffer, read-out: logD
[27] = Half life in dog liver microsomes; format: ADME, Canis lupus familiaris, Microsome
[28] = Kinetic solubility of the compound at pH 7 with […] DMSO; format: physicochemical; settings: buffer, read-out: Kinetic_solubility
[29] = tested on: Mus musculus; assay: Toxicity in athymic nu/nu Harlan mouse xenografted with human HCT116 cells assessed as body weight loss at 100 mg/kg, po QD for 21 days measured on day 22; format: organism-based, HCT-116; parameters: dose 100 mg/kg, route oral; settings: in vivo, 504 h
[30] = tested on: HCT-116; assay: Antitumor activity against human HCT116 cells xenografted in athymic nu/nu Harlan mouse assessed as tumor growth inhibition at 200 mg/kg, po qd for 7 days measured on day 22; format: functional; settings: read-out: TGI
[31] = tested on: Mus musculus; assay: Toxicity in athymic nu/nu Harlan mouse xenografted with human HCT116 cells assessed as mouse survival at 100 mg/kg, po QD for 7 days measured on day 22; format: organism-based, HCT-116; parameters: dose 100 mg/kg, route oral; settings: in vivo, 168 h
[32] = tested on: HCT-116; assay: Antitumor activity against human HCT116 cells xenografted in athymic nu/nu Harlan mouse assessed as tumor growth inhibition at 50 mg/kg, po qd for 21 days measured on day 22; settings: HCT-116, po, read-out: TGI
[33] = tested on: Mus musculus; assay: Toxicity in athymic nu/nu Harlan mouse xenografted with human HCT116 cells assessed as body weight loss at 100 mg/kg, po QD for 7 days measured on day 5; format: organism-based, HCT-116; parameters: dose 100 mg/kg, route oral; settings: in vivo, 168 h
[34] = tested on: Mus musculus; assay: Toxicity in athymic nu/nu Harlan mouse xenografted with human HCT116 cells assessed as body weight loss at 200 mg/kg, po QD for 7 days measured on day 5; settings: in vivo, 168 h
[35] = tested on: HCT-116; assay: Antitumor activity against human HCT116 cells xenografted in athymic nu/nu Harlan mouse assessed as tumor growth inhibition at 100 mg/kg, po qd measured on day 22; settings: HCT-116, po, read-out: TGI
[36] = tested on: Mus musculus; assay: Toxicity in athymic nu/nu Harlan mouse xenografted with human HCT116 cells assessed as body weight loss at 50 mg/kg, po QD for 21 days measured on day 5; settings: in vivo, 504 h
[37] = tested on: Mus musculus; assay: Toxicity in athymic nu/nu Harlan mouse xenografted with human HCT116 cells assessed as mouse survival at 50 mg/kg, po QD for 7 days measured on day 22; format: organism-based, HCT-116; parameters: dose 50 mg/kg, route oral; settings: in vivo, 168 h

Chain of Histone deacetylase 4 (P56524 whole entry): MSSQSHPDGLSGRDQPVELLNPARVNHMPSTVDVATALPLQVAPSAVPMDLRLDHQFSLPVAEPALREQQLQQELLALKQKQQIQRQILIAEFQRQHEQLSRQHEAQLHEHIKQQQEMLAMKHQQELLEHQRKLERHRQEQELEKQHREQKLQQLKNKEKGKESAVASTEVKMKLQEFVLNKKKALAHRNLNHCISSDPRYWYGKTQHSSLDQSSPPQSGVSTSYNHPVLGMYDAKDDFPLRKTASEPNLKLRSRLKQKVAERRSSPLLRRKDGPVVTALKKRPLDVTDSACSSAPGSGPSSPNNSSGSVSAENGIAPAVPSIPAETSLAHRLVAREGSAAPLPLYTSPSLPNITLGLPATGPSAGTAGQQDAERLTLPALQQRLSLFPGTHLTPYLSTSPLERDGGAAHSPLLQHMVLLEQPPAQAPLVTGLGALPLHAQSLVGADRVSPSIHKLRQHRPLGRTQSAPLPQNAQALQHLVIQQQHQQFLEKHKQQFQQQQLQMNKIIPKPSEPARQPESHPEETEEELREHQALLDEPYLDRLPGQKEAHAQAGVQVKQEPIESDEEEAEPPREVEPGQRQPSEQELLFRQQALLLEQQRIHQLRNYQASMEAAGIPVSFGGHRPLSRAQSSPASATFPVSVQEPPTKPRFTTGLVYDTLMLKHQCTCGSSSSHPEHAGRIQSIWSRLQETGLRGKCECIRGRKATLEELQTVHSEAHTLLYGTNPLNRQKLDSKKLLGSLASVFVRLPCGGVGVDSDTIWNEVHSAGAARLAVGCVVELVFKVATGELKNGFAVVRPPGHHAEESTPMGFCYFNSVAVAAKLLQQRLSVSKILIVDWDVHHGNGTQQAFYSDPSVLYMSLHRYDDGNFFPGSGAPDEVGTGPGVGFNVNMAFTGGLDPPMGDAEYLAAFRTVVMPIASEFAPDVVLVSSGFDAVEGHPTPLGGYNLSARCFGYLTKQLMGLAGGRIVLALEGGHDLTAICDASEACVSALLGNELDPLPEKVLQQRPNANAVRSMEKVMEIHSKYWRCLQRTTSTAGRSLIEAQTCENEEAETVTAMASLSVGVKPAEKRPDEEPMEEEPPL

## O=C(/C=C/c1cccc(S(=O)(=O)Nc2ccccc2)c1)NO [BELINOSTAT]
[1]
  Activity: Non-toxic
[2]
  IC50: 700 nM
[3]
  Ki: 15 nM
[4]
  IC50: 450 nM
[5]
  IC50: 670 nM
[6]
  Activity: Non-toxic
[7]
  Activity: Non-toxic
[8]
  Ki: 10 nM
[9]
  inhibition in vivo at 100 mg/kg: 26%
[10]
  IC50: 600 nM
[11]
  inhibition in vivo at 200 mg/kg: 42%
[12]
  inhibition in vivo at 40 mg/kg: 50%
[13]
  bioavailability: 6.7%
[14]
  inhibition in vivo at 50 mg/kg: 6%
[15]
  Ki: 59 nM
[16]
  Activity: 3.9%
[17]
  inhibition in vivo at 200 mg/kg: 29%

## CN(C)CC(C)(C)Cn1c(CC(C)(C)C)nc2cc(/C=C/C(=O)NO)ccc21.Cl.Cl
[1]
  Activity: Non-toxic
[18]
  Papp A→B: 19.4 ×10⁻⁶ cm/s
[19]
  Activity: Non-toxic
[20]
  half-life: 20 min
[21]
  Papp B→A: 14.9 ×10⁻⁶ cm/s
[7]
  Activity: Non-toxic
[22]
  Activity: 5.6%
[23]
  inhibition in vivo at 25 mg/kg: 30%
[9]
  inhibition in vivo at 100 mg/kg: 85%
[24]
  half-life: 41 min
[25]
  half-life: > 60 min
[26]
  logD: 2.41
[27]
  half-life: > 60 min
[28]
  solubility kinetic: > 200 µM
[14]
  inhibition in vivo at 50 mg/kg: 55%
[29]
  Activity: 13.1%

## CCCCCCc1nc2cc(/C=C/C(=O)NO)ccc2n1CCN(C)C.Cl.Cl
[18]
  Papp A→B: 9.59 ×10⁻⁶ cm/s
[30]
  inhibition in vivo at 200 mg/kg: 53%
[31]
  Activity: Non-toxic
[32]
  inhibition in vivo at 50 mg/kg: 17%
[20]
  half-life: 16 min
[33]
  Activity: 4.9%
[21]
  Papp B→A: 26 ×10⁻⁶ cm/s
[34]
  Activity: 18%
[24]
  half-life: 10 min
[25]
  half-life: > 60 min
[35]
  inhibition in vivo at 100 mg/kg: 50%
[27]
  half-life: 10 min
[36]
  Activity: 1.9%
[37]
  Activity: Non-toxic
[28]
  solubility kinetic: > 200 µM
